# Assay results as given in ChEMBL document CHEMBL3352228 (J Med Chem, 2014).
# Tested on: Plasma
# Assay: not given
# Details: rat, in vivo, po, 10 mg/kg, 4 h
row,Compound,Cp(f) [nM]
1,CC1(C)C=C(c2cnc3c(c2)[C@]2(COC(N)=N2)c2cc(-c4cccnc4F)ccc2O3)CCO1,45

# Tested on: not listed separately
# Assay: in vivo
# Details: Sprague-Dawley, rat, CSF, po, 10 mg/kg
row,Compound,concentration at 4 h [nM]
1,CC1(C)C=C(c2cnc3c(c2)[C@]2(COC(N)=N2)c2cc(-c4cccnc4F)ccc2O3)CCO1,5

# Tested on: not listed separately
# Assay: in vivo
# Details: Sprague-Dawley, rat, plasma, po, 10 mg/kg
row,Compound,concentration at 4 h [nM]
1,CC1(C)C=C(c2cnc3c(c2)[C@]2(COC(N)=N2)c2cc(-c4cccnc4F)ccc2O3)CCO1,1010

# Tested on: not listed separately
# Assay: in vitro
# Details: pig, LLC-PK1
row,Compound,Papp at 2 h [×10⁻⁶ cm/s]
1,CC(C)(C)COc1cnc2c(c1)[C@]1(COC(N)=N1)c1cc(-c3cncnc3)ccc1O2,16
2,CC(C)(C)COc1cnc2c(c1)[C@]1(COC(N)=N1)c1cc(-c3cccnc3)ccc1O2,11
3,CC(C)(C)COc1cnc2c(c1)[C@]1(COC(N)=N1)c1cc(-c3cccnc3F)ccc1O2,14
4,CC(C)(C)COc1ccc2c(c1)[C@]1(COC(N)=N1)c1cc(-c3cncnc3)cnc1O2,16
5,COC(C)(C)COc1cnc2c(c1)[C@]1(COC(N)=N1)c1cc(-c3cccnc3F)ccc1O2,16
6,NC1=N[C@@]2(CO1)c1cc(-c3cccnc3F)ccc1Oc1ncc(C3=CCOCC3)cc12,20
7,NC1=N[C@@]2(CO1)c1cc(-c3cccnc3F)ccc1Oc1ncc(C3=CCCOC3)cc12,11
8,NC1=N[C@@]2(CO1)c1cc(-c3cccnc3F)ccc1Oc1ncc(C3CCOCC3)cc12,15
9,CC1(C)C=C(c2cnc3c(c2)[C@]2(COC(N)=N2)c2cc(-c4cccnc4F)ccc2O3)CCO1,17
10,NC1=N[C@@]2(CO1)c1cc(-c3cccnc3F)ccc1Oc1ncc(N3CCOCC3)cc12,10
11,Cc1ccc(-c2cnc3c(c2)[C@]2(COC(N)=N2)c2cc(-c4cccnc4F)ccc2O3)cc1,14
12,N#Cc1ccc(-c2cnc3c(c2)[C@]2(COC(N)=N2)c2cc(-c4cccnc4F)ccc2O3)cc1,16
13,NC1=N[C@@]2(CO1)c1cc(-c3cccnc3F)ccc1Oc1ncc(-c3ccnc(F)c3)cc12,15
14,CC(C)(C)C#Cc1cnc2c(c1)[C@]1(COC(N)=N1)c1cc(-c3cccnc3F)ccc1O2,9.5
15,COC(C)(C)C#Cc1cnc2c(c1)[C@]1(COC(N)=N1)c1cc(-c3cccnc3F)ccc1O2,12
16,CC(C)(O)C#Cc1cnc2c(c1)[C@]1(COC(N)=N1)c1cc(-c3cccnc3F)ccc1O2,11
